{"source": "patent US5288720A", "about": "“Angiotensin II receptor blocking 2,3,6 substituted quinazolinones” (American Cyanamid Company, priority 1993, dated 1994)", "test_system": "ANGIOTENSIN II VASOPRESSOR RESPONSE", "assay": "AII Challenge: blockade of angiotensin II vasopressor response in conscious SHR", "format": "in vivo, rat (Conscious Male Okamoto-Aoki SHR)", "conditions": "SHR n=2", "in_short": "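Percent blockade is derived from the systolic pressure rise in mmHg, taking each rat's own predose response as 100%. Rats were conscious male Okamoto-Aoki SHR, 16-20 weeks, ~330 g, with aortic and caval cannulas under local procaine. Compound went i.v., i.p. or orally, then angiotensin II challenges (0.05 and 0.1 ug/kg i.v.) at 30-300 min.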", "key": {"[1]": {"conditions": "3 mg/kg i.v., AII 0.05 mcg/kg IV, 30 min post dose"}, "[2]": {"conditions": "3 mg/kg i.v., AII 0.05 mcg/kg IV, 60 min post dose"}, "[3]": {"conditions": "3 mg/kg i.v., AII 0.05 mcg/kg IV, 90 min post dose"}, "[4]": {"conditions": "3 mg/kg i.v., AII 0.05 mcg/kg IV, 120 min post dose"}, "[5]": {"conditions": "3 mg/kg i.v., AII 0.05 mcg/kg IV, 180 min post dose"}, "[6]": {"conditions": "3 mg/kg i.v., AII 0.05 mcg/kg IV, 240 min post dose"}, "[7]": {"conditions": "3 mg/kg i.v., AII 0.05 mcg/kg IV, 300 min post dose"}, "[8]": {"conditions": "3 mg/kg i.v., AII 0.1 mcg/kg IV, 30 min post dose"}, "[9]": {"conditions": "3 mg/kg i.v., AII 0.1 mcg/kg IV, 60 min post dose"}, "[10]": {"conditions": "3 mg/kg i.v., AII 0.1 mcg/kg IV, 90 min post dose"}, "[11]": {"conditions": "3 mg/kg i.v., AII 0.1 mcg/kg IV, 120 min post dose"}, "[12]": {"conditions": "3 mg/kg i.v., AII 0.1 mcg/kg IV, 180 min post dose"}, "[13]": {"conditions": "3 mg/kg i.v., AII 0.1 mcg/kg IV, 240 min post dose"}, "[14]": {"conditions": "3 mg/kg i.v., AII 0.1 mcg/kg IV, 300 min post dose"}, "[15]": {"conditions": "3 mg/kg p.o., AII 0.05 mcg/kg IV, 30 min post dose"}, "[16]": {"conditions": "3 mg/kg p.o., AII 0.05 mcg/kg IV, 60 min post dose"}, "[17]": {"conditions": "3 mg/kg p.o., AII 0.05 mcg/kg IV, 90 min post dose"}, "[18]": {"conditions": "3 mg/kg p.o., AII 0.05 mcg/kg IV, 120 min post dose"}, "[19]": {"conditions": "3 mg/kg p.o., AII 0.05 mcg/kg IV, 180 min post dose"}, "[20]": {"conditions": "3 mg/kg p.o., AII 0.05 mcg/kg IV, 240 min post dose"}, "[21]": {"conditions": "3 mg/kg p.o., AII 0.1 mcg/kg IV, 30 min post dose"}, "[22]": {"conditions": "3 mg/kg p.o., AII 0.1 mcg/kg IV, 60 min post dose"}, "[23]": {"conditions": "3 mg/kg p.o., AII 0.1 mcg/kg IV, 90 min post dose"}, "[24]": {"conditions": "3 mg/kg p.o., AII 0.1 mcg/kg IV, 120 min post dose"}, "[25]": {"conditions": "3 mg/kg p.o., AII 0.1 mcg/kg IV, 180 min post dose"}, "[26]": {"conditions": "3 mg/kg p.o., AII 0.1 mcg/kg IV, 240 min post dose"}}}
{"molecule": "CCCCc1nc2ccc(C(O)C3CCN(C)C3=O)cc2c(=O)n1Cc1ccc(-c2ccccc2-c2nn[nH]n2)cc1", "note": "(single isomer, unassigned; isomer 1) [Example 32, 2-Butyl-6-[hydroxy(1-methyl-2-oxo-3-pyrrolidinyl)methyl]-3-[[2'-(1e,uns/H/ -tetrazol-5-yl)[1,1'-biphenyl]-4-yl]methyl]-4(3H)-quinazolinone isomer 1]", "values": [{"measurement": "% Inhibition of AII vasopressor response", "setting": "[1]", "result": 100, "unit": "%"}, {"measurement": "Average Change (systolic blood pressure response to AII)", "setting": "[1]", "result": 0, "unit": "mmHg"}, {"measurement": "% Inhibition of AII vasopressor response", "setting": "[2]", "result": 89, "unit": "%"}, {"measurement": "Average Change (systolic blood pressure response to AII)", "setting": "[2]", "result": 2.5, "unit": "mmHg"}, {"measurement": "% Inhibition of AII vasopressor response", "setting": "[3]", "result": 89, "unit": "%"}, {"measurement": "Average Change (systolic blood pressure response to AII)", "setting": "[3]", "result": 2.5, "unit": "mmHg"}, {"measurement": "% Inhibition of AII vasopressor response", "setting": "[4]", "result": 89, "unit": "%"}, {"measurement": "Average Change (systolic blood pressure response to AII)", "setting": "[4]", "result": 2.5, "unit": "mmHg"}, {"measurement": "% Inhibition of AII vasopressor response", "setting": "[5]", "result": 68, "unit": "%"}, {"measurement": "Average Change (systolic blood pressure response to AII)", "setting": "[5]", "result": 7.5, "unit": "mmHg"}, {"measurement": "% Inhibition of AII vasopressor response", "setting": "[6]", "result": 26, "unit": "%"}, {"measurement": "Average Change (systolic blood pressure response to AII)", "setting": "[6]", "result": 17.5, "unit": "mmHg"}, {"measurement": "% Inhibition of AII vasopressor response", "setting": "[7]", "result": -13, "unit": "%"}, {"measurement": "Average Change (systolic blood pressure response to AII)", "setting": "[7]", "result": 26.5, "unit": "mmHg"}, {"measurement": "% Inhibition of AII vasopressor response", "setting": "[8]", "result": 100, "unit": "%"}, {"measurement": "Average Change (systolic blood pressure response to AII)", "setting": "[8]", "result": 0, "unit": "mmHg"}, {"measurement": "% Inhibition of AII vasopressor response", "setting": "[9]", "result": 96, "unit": "%"}, {"measurement": "Average Change (systolic blood pressure response to AII)", "setting": "[9]", "result": 1.5, "unit": "mmHg"}, {"measurement": "% Inhibition of AII vasopressor response", "setting": "[10]", "result": 88, "unit": "%"}, {"measurement": "Average Change (systolic blood pressure response to AII)", "setting": "[10]", "result": 5, "unit": "mmHg"}, {"measurement": "% Inhibition of AII vasopressor response", "setting": "[11]", "result": 94, "unit": "%"}, {"measurement": "Average Change (systolic blood pressure response to AII)", "setting": "[11]", "result": 2.5, "unit": "mmHg"}, {"measurement": "% Inhibition of AII vasopressor response", "setting": "[12]", "result": 53, "unit": "%"}, {"measurement": "Average Change (systolic blood pressure response to AII)", "setting": "[12]", "result": 20, "unit": "mmHg"}, {"measurement": "% Inhibition of AII vasopressor response", "setting": "[13]", "result": 24, "unit": "%"}, {"measurement": "Average Change (systolic blood pressure response to AII)", "setting": "[13]", "result": 32.5, "unit": "mmHg"}, {"measurement": "% Inhibition of AII vasopressor response", "setting": "[14]", "result": 0, "unit": "%"}, {"measurement": "Average Change (systolic blood pressure response to AII)", "setting": "[14]", "result": 42.5, "unit": "mmHg"}, {"measurement": "% Inhibition of AII vasopressor response", "setting": "[15]", "result": 0, "unit": "%"}, {"measurement": "Average Change (systolic blood pressure response to AII)", "setting": "[15]", "result": 32.5, "unit": "mmHg"}, {"measurement": "% Inhibition of AII vasopressor response", "setting": "[16]", "result": 46, "unit": "%"}, {"measurement": "Average Change (systolic blood pressure response to AII)", "setting": "[16]", "result": 17.5, "unit": "mmHg"}, {"measurement": "% Inhibition of AII vasopressor response", "setting": "[17]", "result": 62, "unit": "%"}, {"measurement": "Average Change (systolic blood pressure response to AII)", "setting": "[17]", "result": 12.5, "unit": "mmHg"}, {"measurement": "% Inhibition of AII vasopressor response", "setting": "[18]", "result": 46, "unit": "%"}, {"measurement": "Average Change (systolic blood pressure response to AII)", "setting": "[18]", "result": 17.5, "unit": "mmHg"}, {"measurement": "% Inhibition of AII vasopressor response", "setting": "[19]", "result": 11, "unit": "%"}, {"measurement": "Average Change (systolic blood pressure response to AII)", "setting": "[19]", "result": 29, "unit": "mmHg"}, {"measurement": "% Inhibition of AII vasopressor response", "setting": "[20]", "result": 31, "unit": "%"}, {"measurement": "Average Change (systolic blood pressure response to AII)", "setting": "[20]", "result": 22.5, "unit": "mmHg"}, {"measurement": "% Inhibition of AII vasopressor response", "setting": "[21]", "result": 27, "unit": "%"}, {"measurement": "Average Change (systolic blood pressure response to AII)", "setting": "[21]", "result": 27.5, "unit": "mmHg"}, {"measurement": "% Inhibition of AII vasopressor response", "setting": "[22]", "result": 27, "unit": "%"}, {"measurement": "Average Change (systolic blood pressure response to AII)", "setting": "[22]", "result": 27.5, "unit": "mmHg"}, {"measurement": "% Inhibition of AII vasopressor response", "setting": "[23]", "result": 40, "unit": "%"}, {"measurement": "Average Change (systolic blood pressure response to AII)", "setting": "[23]", "result": 22.5, "unit": "mmHg"}, {"measurement": "% Inhibition of AII vasopressor response", "setting": "[24]", "result": 28, "unit": "%"}, {"measurement": "Average Change (systolic blood pressure response to AII)", "setting": "[24]", "result": 27, "unit": "mmHg"}, {"measurement": "% Inhibition of AII vasopressor response", "setting": "[25]", "result": 13, "unit": "%"}, {"measurement": "Average Change (systolic blood pressure response to AII)", "setting": "[25]", "result": 32.5, "unit": "mmHg"}, {"measurement": "% Inhibition of AII vasopressor response", "setting": "[26]", "result": 23, "unit": "%"}, {"measurement": "Average Change (systolic blood pressure response to AII)", "setting": "[26]", "result": 29, "unit": "mmHg"}]}
